Measurements published in patent US20220018855A1, “RGMa Fragment Based Diagnostic Assay” (ABBVIE DEUTSCHLAND GMBH & CO. KG, priority 2014, published 2022).
Entries after “also recorded” stand apart in the source; their conditions may differ.

Assays:
[1] = test system: MS patients; conditions: cited from earlier work
[2] = test system: RGMa; assay: RGMa levels in cerebrospinal fluid by Western blot with densitometric quantification; assay type: in vivo, human
[3] = test system: progressive multiple sclerosis patients; assay: Side effects during TCA therapy; assay type: in vivo, human; conditions: all participants (25 MS patients)
Experimental: (§1) Design. TCA application was followed by a mandatory stay in bed for at least six hours in order to support and ease the diffusion of TCA in the CSF and the spinal cord. Lumbar puncture was performed with an atraumatic Sprotte needle. The preexisting immune system modulating drug therapy remained stable. Spasticity reducing therapy was not changed. Expanded Disability Status Score (EDSS) ratings, maximum walking distance, and walking speed assessments were performed at baseline and on each day after a 40 mg Triamcinolone acetonide (TCA) administration, dissolved in 10 ml saline, up to the fourth TCA application. […] Clinical evaluation was performed at baseline and on each day after a triamcinolone administration in 25 progressive multiple sclerosis patients. Before the TCA was administered to a patient, 1-2 ml aliquots of CSF were withdrawn. RGMa concentrations were determined before each triamcinolone application by western blot analysis with quantification. Dependent on the disease activity, the patients usually received 4-6 TCA applications.

[4] = test system: progressive multiple sclerosis patients; assay: Clinical evaluation (EDSS, maximum walking distance, walking speed) after repeated intrathecal TCA applications; assay type: in vivo, human; conditions: for clinical benefit / functional recovery: not immediately responding patients
Experimental: as §1, with “Subjects. 25 MS patients (age: 50±1.64 [mean±SEM, years] were studied. The average MS duration was 14.02±1.71 [years]. The subjects included 14 women and 11 men. The subjects included 13 secondary progressive [8 women, 5 men] and 12 primary progressive [6 women, 6 men]). […] Design.” for “Design.”, “application. Statistics. ANCOVA with repeated measures design were employed for this exploratory analysis of this pilot trial. Covariates were MS duration, MS types, sex and age as covariates. The post hoc analysis was done with the Tukey's multiple comparisons test against baseline. The statistical analysis was performed with GraphPad Prism 5 Software.” for “application.”

[5] = treated MS patients, numerous TCA studies

In the case of `CC1(C)O[C@@H]2C[C@H]3[C@@H]4CCC5=CC(=O)C=C[C@]5(C)[C@@]4(F)[C@@H](O)C[C@]3(C)[C@]2(C(=O)CO)O1` [TCA, triamcinolone acetonide], the “CSF synthesis of free radicals” value ([1]; patients with a distinct immediate enhancement of upper and lower limb function) is listed as “Reduced”, the “EDSS (Expanded Disability Status Score)” value [1, 5] is listed as “decreased” and the walking distance [1, 5] is listed as “increased”. For the same molecule, the walking speed [1, 5] was “decreased”, the “RGMa concentrations in CSF” value ([2]; not immediately responding patients) was “no decrease” and the “RGMa 40 kDa form level in CSF” value ([2]; not immediately responding patients, F=0.84, ns, FIG. 7A) was “No significant changes”. The “RGMa 30 kDa form level in CSF” value ([2]; not immediately responding patients, F=2.98, ns, FIG. 7B) was “No significant changes”, the “RGMa levels in CSF (all investigated fragments)” value (“RGMa levels in CSF” below) ([2]; responders) was “decreased” and the “RGMa 40 kDa form level in CSF” value ([2]; responders, F=9.12, p<0.0001, FIG. 5A) was “decline”. The “RGMa 30 kDa form level in CSF” value ([2]; responders, less pronounced than 40 kDa, F=3.82, p<0.05, FIG. 5B) was “decline”, the “RGMa levels in CSF” value ([2]; responders, listed as Triamcinolone Acetonide) was “reduction” and the “RGMa levels in CSF” value ([2]; responders, listed as triamcinolone) was “declined”. The serious side effects [3] was “no serious side effects”, the walking speed ([4]; 8 not immediately responding patients, F=0.021, ns, FIG. 4C) was “no significant change; also recorded: no improved” and the EDSS scores ([4]; 8 not immediately responding patients, F=1, ns, FIG. 4A) was “no significant change; also recorded: no improved”. For the same molecule, the maximum walking distances ([4]; 8 not immediately responding patients, F=1.52, ns, FIG. 4B) was “no significant change; also recorded: no improved”, the walking speed ([4]; 17 immediate responders (3 wheel chair bound excluded), F=3.42, p<0.01, FIG. 3C) was “improved” and the walking speed ([4]; 17 immediate responders (3 wheel chair bound excluded), F=3.42, p<0.01, FIG. 3C, listed as Triamcinolone Acetonide) was “went up”. For the same molecule, the walking speed ([4]; 17 immediate responders (3 wheel chair bound excluded), F=3.42, p<0.01, FIG. 3C, listed as triamcinolone) was “ameliorated”, the maximum walking distances ([4]; 17 immediate responders (3 wheel chair bound excluded), F=3.64, p=0.01, FIG. 3B) was “improved” and the maximum walking distances ([4]; 17 immediate responders (3 wheel chair bound excluded), F=3.64, p=0.01, FIG. 3B, listed as Triamcinolone Acetonide) was “increased”. The maximum walking distances ([4]; 17 immediate responders (3 wheel chair bound excluded), F=3.64, p=0.01, FIG. 3B, listed as triamcinolone) was “ameliorated”, the EDSS scores ([4]; 17 immediate responders, 40 mg TCA intrathecal, repeated, F=8.55, p<0.009, FIG. 3A) was “improved” and the EDSS scores ([4]; 17 immediate responders, 40 mg TCA intrathecal, repeated, F=8.55, p<0.009, FIG. 3A, listed as Triamcinolone Acetonide) was “went down”. The EDSS scores ([4]; 17 immediate responders, 40 mg TCA intrathecal, repeated, F=8.55, p<0.009, FIG. 3A, listed as triamcinolone) was “improved”, the “patients reporting a delayed improvement within three weeks after the TCA applications” value ([4]; among the 8 not immediately responding patients) was 6 patients and the “clinical benefit / functional recovery” value [4] was “no functional recovery”. For the same molecule, the “clinical benefit / functional recovery” value ([4]; listed as triamcinolone) was “no prompt clinical benefit”, the “patients improved following treatment” value ([4]; of 25 progressive MS patients) was 17 patients and the “patients who did not immediately respond during the observation period” value ([4]; of 25 progressive MS patients) was 8 patients.
